This note sets out measurements from patent US11325906B2, “Chemical compounds” (AstraZeneca AB, priority 2019, dated 2022).

Assay [1] relates to DLD1 cells. As to the kind of experiment: PARP proliferation assay (4 day compound dosing), WT DLD1. The assay is classed as cell-based. Particulars: Homo sapiens, 96 h, WT DLD-1 cells, read-out: WT DLD-1 prolif 4 d IC50.
The subject of assay [2] is BRCA2 (−/−) DLD1 cells. As to the kind of experiment: PARP proliferation assay (4 day compound dosing), BRCA2 (−/−) DLD1. The assay is classed as cell-based. Particulars: Homo sapiens, 96 h, BRCA2 −/− DLD-1 cells, read-out: BRCA2 −/− DLD-1 prolif 4 d IC50.

For `CCc1cc2ncc(CN3CCN(c4ccc(C(=O)NC)nc4C)CC3)cc2[nH]c1=O` [Example 31, 5-[4-[(7-ethyl-6-oxo-5H-1,5-naphthyridin-3-yl)methyl]piperazin-1-yl]-N,6-dimethyl-pyridine-2-carboxamide], the IC50 in assay [1] was > 30000 nM; in assay [2], 4 nM.
